Earlier results on seven compounds are cited in patent US20230355898A1, “NEBULIZER AND NEBULIZED ANTI-VIRALS” (priority 2020, published 2023).

Structures can show the parent of a compound that is named as a salt. Where two headings read alike, the source gives them in different places.

For series [1], the system named is SARS-CoV-2 pseudoparticulates. As to conditions: drug at human blood maximum concentrations in fluid and airway channels; Si, 2020.
The test system of series [2] is SARS-CoV-2. The settings on record: for SARS-CoV-2 viral load measured by RT-qPCR of the viral N transcript: COVID-19 hamster model, Intraperitoneal (IP) administration; for prophylactic efficacy in reducing SARS-CoV-2 infection: hamsters, 50 mg/kg SC QD, virus intranasal or by association with nasally infected animals; for reduction in viral load or change in disease progression: Rosenke. (Quantitative PCR measures a nucleic acid by following its amplification.)

Series [3] concerns SARS-CoV-2 pseudoparticulates (pp). The settings on record: Huh-7, SARS-CoV-2pp, concurrent treatment, Si, 2020.
In series [4] the test system is SARS-CoV-2. As to conditions: Vero 6, SARS-Cov-2, pretreatment; Si, 2020; read-out: Inhibition of infection IC50.
For series [5], the system named is SARS-CoV-2. The settings on record: read-out: Viral Replication EC50 @ 48 hr, Vero 6, Concurrent, Wang, 2020.
For series [6] the following is noted: free base; PubChem.
The subject of series [7] is SARS-CoV-2. The settings on record: Rhesus Macaque, Rosenke, 2020.
Assay in series [8]: not given
This is another data set of the same source.

The conditions of series [9]: rat, in vivo.
The mark [10] stands for this setting: four-route infection on day 0, 6 mg/kg PO 12 18, 36, 60, 84 and 108 hours post-infection (therapeutic).
Where [11] appears, read: four-route infection on day 0, 6 mg/kg PO on days −9, −2, and 5 (prophylactic).

For the compound `CCN(CC)Cc1cc(Nc2ccnc3cc(Cl)ccc23)ccc1O.Cl.Cl` [ADQ hydrochloride], the “Inhibition of SARS-CoV-2pp entry into LAC epithelial cells (qPCR of viral mRNA)” value (“Inhibition … (qPCR of viral mRNA)” below) in series [1] is on record as “inhibited”. In addition, the “SARS-CoV-2 viral load measured by RT-qPCR of the viral N transcript” value in series [2] (Si, 2020) is “able to reduce”. For the same compound, the “prophylactic efficacy in reducing SARS-CoV-2 infection” value in [2] was “effective”.
For orientation: IC50 means the point on the concentration scale where inhibition reaches its midpoint. In the case of `CCN(CC)Cc1cc(Nc2ccnc3cc(Cl)ccc23)ccc1O` [ADQ, amodiaquine], in series [3], the “Inhibition of viral entry: % entry @ 1 μM” value (shortened to “Inhibition … % entry @ 1 μM”) is recorded as 10% entry @1 μM and the “Inhibition of viral entry: % entry @ 5 μM” value (“Inhibition … % entry @ 5 μM” for short) is 30% entry @ 5 μM;. The IC50 in series [4] was 10.3 µM. In addition, the “reduction in viral load on day 4” value in series [2] (Hamster, exposure of healthy animals to nasally infected animals on day 2, 50 mg/kg SC day 1 and days 2, 3, 4, Si, 2020) was 90% reduction in. For the same compound, the “reduction in viral load on day 4” value in series [2] (Hamster, nasal infection on day 2, 50 mg/kg SC 1 day before infection and days 2, 3, 4, Si, 2020) is given as 70% reduction in. For the same compound, the “prophylactic efficacy in reducing SARS-CoV-2 infection” value in series [2] is “exhibit prophylactic efficacy”. The T1/2 (human, in vivo, iv) was 0.083 days. Besides, the V2 (in vivo, iv) is 39 L.
With `CCN(CC)CCCC(C)Nc1ccnc2cc(Cl)ccc12.O=P(O)(O)O.O=P(O)(O)O` (stereo not drawn) [CQ phosphate], the “Inhibition … (qPCR of viral mRNA)” value in series [1] was “lack of efficacy”.
Usually EC50 stands for the concentration that produces a half-maximal response. On to `CCN(CC)CCCC(C)Nc1ccnc2cc(Cl)ccc12` (stereo not drawn) [CQ, chloroquine], for which, in series [3], the “Inhibition … % entry @ 1 μM” value is listed as 10% entry @ 1 μM and the “Inhibition … % entry @ 5 μM” value is on record as 50% entry @ 5 μM;. Also, the EC50 in series [5] was 1.13 µM. Moreover, the “Inhibition … (qPCR of viral mRNA)” value in [1] was “lack of efficacy”. Also, where the note is “IV in humans”, the T1/2 is 23.7 days and the V2 was 7,973 L.
In general, Log P refers to a log measure of how a compound divides between an organic and an aqueous phase. Consider `CCNCc1cc(Nc2ccnc3cc(Cl)ccc23)ccc1O` [DEAQ, desethylamodiaquine], for which the concentration for half-maximal inhibition (IC50) in series [4] is 8.5 µM. For the same compound, in series [6], the “Log P” value is listed as 2.3.
Regarding `CCN(CCO)CCCC(C)Nc1ccnc2cc(Cl)ccc12` (stereo not drawn) [HCQ sulfate, hydroxychloroquine sulfate], in series [1], the “Inhibition … (qPCR of viral mRNA)” value is recorded as “lack of efficacy”. In addition, the “SARS-CoV-2 viral load measured by RT-qPCR of the viral N transcript” value in series [2] (Si, 2020) is “ineffective”. Besides, the “reduction in viral load on day 5” value in series [2] (Hamster, exposure to nasally infected animals on day 2, 600 mg/kg IP day 1 and 50 mg/kg IP days 2, 3, 4, 5, Kapstein, 2020) is “ineffective”. In addition, the “reduction in viral load or change in disease progression” value was “ineffective” in series [2] (Hamster, nasal infection on day 1, 50 mg/kg IP 1 hr after infection and days 2, 3 (therapeutic), 2020, 50 mg/kg); “ineffective” in [2] (Hamster, nasal infection on day 2, 50 mg/kg IP 1 day before infection and days 2, 3, 4 (prophylactic), 2020, 50 mg/kg). The “reduction in viral load on day 4” value in series [2] (Hamster, nasal infection on day 2, 50 mg/kg IP 1 day before infection and days 2, 3, 4, Kapstein, 2020, 50 mg/kg) was “ineffective”. Further, the “effect upon viral loads at days 3, 5, or 7, or disease pathology through post-mortem on day 7” value in series [7] (setting [10]) and in series [7] (setting [11]) was “ineffective” each time. Moreover, the “clinical endpoints for asthma (Phase II)” value in [8] (nebulized) is reported as “did not meet its clinical endpoints”. Also, the “tolerability of pulmonary doses” value in series [8] (nebulized hypertonic 100 mg/mL, up to 20 mg QD) is listed as “well tolerated with minimal side effects”. The “lung drug concentrations, IT versus IV solution” value in series [9] is recorded as “higher lung drug concentrations”.
For the compound `CCN(CCO)CCCC(C)Nc1ccnc2cc(Cl)ccc12` (stereo not drawn) [HCQ, hydroxychloroquine], in series [3], the “Inhibition … % entry @ 1 μM” value is reported as 30% entry @ 1 μM. Also, the “Inhibition … % entry @ 5 μM” value in series [3] is recorded as 50% entry @ 5 μM;. The “Inhibition … (qPCR of viral mRNA)” value in series [1] is “repeatedly failed”. In addition, the “effect upon viral loads at days 3, 5, or 7, or disease pathology through post-mortem on day 7” value in [7] (setting [10]) and in [7] (setting [11]) was “No effect upon viral” throughout. Further, the “Log P” value in [6] is recorded as 3.9. The T1/2 (human, in vivo, iv) is 26.2 days. In addition, where the note is “in vivo, iv”, the V2 is recorded as 26,711 L.
